Data on 22 compounds can be found in patent US10077261B2, “Imidazolin-5-one derivative useful as FASN inhibitors for the treatment of cancer” (Janssen Pharmaceutica NV, priority 2012, dated 2018).

Bounds are passed on as bounds.

By inhibition is commonly meant the change of the read-out against control, counted positive when it falls.

The assay deals with T1, hFASN enzyme (full length) (Homo sapiens, UniProt P49327).
T1 construct: 10 μL hFASN enzyme (full length, 300 ng, purified in house); made in house
Nature of the assay: Fatty Acid Synthase (FASN) inhibition scintillation proximity assay. The following applies: for inhibition at 10 µM: read-out: Human FASN % inhibition @ 10 μM, 10 μM test compound; for IC50: read-out: Human FASN pIC50 (converted). The format is biochemical. The method in brief:
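Full-length in-house purified enzyme (300 ng) was tested in 100 mM KH2PO4 pH 7.5, 1 mM DTT with ³H-acetyl-CoA and malonyl-CoA as substrates; compounds ranged 0.01–30 μM. Reactions were stopped with streptavidin imaging beads, read by LEADseeker at 610 nm, and fitted to a 4-parameter logistic curve.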
For orientation: SPA uses beads or plates that emit light when radiolabelled molecules are held near them.

T1 sequence (P49327 whole entry): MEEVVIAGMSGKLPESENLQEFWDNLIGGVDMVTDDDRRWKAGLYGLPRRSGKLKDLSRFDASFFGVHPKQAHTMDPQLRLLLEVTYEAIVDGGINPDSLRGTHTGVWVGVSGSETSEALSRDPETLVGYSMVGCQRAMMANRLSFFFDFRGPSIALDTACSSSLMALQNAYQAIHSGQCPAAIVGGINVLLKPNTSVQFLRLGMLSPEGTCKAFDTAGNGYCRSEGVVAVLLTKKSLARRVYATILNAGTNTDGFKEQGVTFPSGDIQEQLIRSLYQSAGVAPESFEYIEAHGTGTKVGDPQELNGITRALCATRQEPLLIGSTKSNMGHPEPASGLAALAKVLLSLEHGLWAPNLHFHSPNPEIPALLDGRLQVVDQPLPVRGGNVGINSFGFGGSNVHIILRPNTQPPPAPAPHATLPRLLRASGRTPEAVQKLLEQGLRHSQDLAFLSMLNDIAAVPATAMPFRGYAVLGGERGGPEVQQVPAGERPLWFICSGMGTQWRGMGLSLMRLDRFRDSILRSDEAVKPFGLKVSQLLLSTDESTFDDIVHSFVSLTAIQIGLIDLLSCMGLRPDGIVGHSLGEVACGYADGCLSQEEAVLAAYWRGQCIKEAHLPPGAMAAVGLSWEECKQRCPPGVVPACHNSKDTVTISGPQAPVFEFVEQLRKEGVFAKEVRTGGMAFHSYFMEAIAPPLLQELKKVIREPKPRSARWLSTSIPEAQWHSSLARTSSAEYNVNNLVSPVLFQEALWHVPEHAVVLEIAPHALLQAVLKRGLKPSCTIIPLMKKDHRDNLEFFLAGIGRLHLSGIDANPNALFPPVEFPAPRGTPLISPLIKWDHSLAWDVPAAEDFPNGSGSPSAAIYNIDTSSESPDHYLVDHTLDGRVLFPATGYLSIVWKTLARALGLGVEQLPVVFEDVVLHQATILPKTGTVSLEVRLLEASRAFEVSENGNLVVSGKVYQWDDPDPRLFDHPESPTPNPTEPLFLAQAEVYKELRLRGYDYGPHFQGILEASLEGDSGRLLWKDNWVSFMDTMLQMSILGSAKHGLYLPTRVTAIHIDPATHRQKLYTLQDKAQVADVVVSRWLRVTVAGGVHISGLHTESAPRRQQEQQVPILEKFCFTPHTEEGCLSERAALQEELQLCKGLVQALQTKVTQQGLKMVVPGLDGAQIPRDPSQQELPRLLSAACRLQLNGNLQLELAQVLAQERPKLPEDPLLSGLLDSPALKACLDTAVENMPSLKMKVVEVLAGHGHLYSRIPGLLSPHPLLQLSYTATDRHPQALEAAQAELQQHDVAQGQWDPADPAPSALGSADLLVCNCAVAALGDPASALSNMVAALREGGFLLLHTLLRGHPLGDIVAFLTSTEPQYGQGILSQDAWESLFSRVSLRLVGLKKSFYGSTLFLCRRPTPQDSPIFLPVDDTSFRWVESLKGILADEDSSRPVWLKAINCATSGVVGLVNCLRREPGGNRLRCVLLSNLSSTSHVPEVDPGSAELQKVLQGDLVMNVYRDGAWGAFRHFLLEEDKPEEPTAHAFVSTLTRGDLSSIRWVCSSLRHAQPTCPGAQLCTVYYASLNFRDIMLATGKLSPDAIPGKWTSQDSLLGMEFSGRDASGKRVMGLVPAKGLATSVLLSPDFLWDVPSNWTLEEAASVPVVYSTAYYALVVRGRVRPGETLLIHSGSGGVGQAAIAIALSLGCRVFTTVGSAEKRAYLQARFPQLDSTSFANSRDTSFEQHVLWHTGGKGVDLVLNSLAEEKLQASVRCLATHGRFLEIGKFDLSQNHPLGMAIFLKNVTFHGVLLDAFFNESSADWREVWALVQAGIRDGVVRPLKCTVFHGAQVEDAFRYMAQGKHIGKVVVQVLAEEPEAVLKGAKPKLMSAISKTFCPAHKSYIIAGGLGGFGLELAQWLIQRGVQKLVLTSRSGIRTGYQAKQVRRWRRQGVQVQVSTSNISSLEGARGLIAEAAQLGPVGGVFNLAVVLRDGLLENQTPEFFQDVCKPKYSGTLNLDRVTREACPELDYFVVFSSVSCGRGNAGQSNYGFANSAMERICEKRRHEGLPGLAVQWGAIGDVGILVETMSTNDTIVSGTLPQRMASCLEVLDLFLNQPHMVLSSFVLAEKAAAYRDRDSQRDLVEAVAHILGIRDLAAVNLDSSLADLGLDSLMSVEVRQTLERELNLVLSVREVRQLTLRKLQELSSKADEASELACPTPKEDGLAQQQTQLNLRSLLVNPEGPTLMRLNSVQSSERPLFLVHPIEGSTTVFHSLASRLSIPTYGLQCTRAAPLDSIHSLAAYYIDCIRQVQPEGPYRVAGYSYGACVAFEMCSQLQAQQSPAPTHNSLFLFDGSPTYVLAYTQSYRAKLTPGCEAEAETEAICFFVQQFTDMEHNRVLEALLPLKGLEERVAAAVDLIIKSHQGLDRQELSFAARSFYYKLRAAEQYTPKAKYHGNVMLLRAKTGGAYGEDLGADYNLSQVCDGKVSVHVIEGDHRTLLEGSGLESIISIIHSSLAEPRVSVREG

For the compound `CC(C)N1CCC2(CC1)N=C(c1ccc(-c3ccc4occc4c3)cc1)N(CC1CN(C(=O)C3CC3)C1)C2=O` [compound 166, 2-[4-(1-Benzofuran-5-yl)phenyl]-3-{[1-(cyclopropylcarbonyl)azetidin-3-yl]methyl}-8-(1-methylethyl)-1,3,8-triazaspiro[4.5]dec-1-en-4-one], the inhibition at 10 µM came to 71.6% and the IC50 was 3390 nM.

`CC(C)N1CCC2(CC1)N=C(c1ccc(-c3ccc4occc4c3)cc1)N(C[C@@H]1CCN(C(=O)C3CC3)C1)C2=O` [compound 167, 2-[4-(1-Benzofuran-5-yl)phenyl]-3-{[(3R)-1-(cyclopropylcarbonyl)pyrrolidin-3-yl]methyl}-8-(1-methylethyl)-1,3,8-triazaspiro[4.5]dec-1-en-4-one]: the inhibition at 10 µM amounted to 96.4% and the IC50 was 525 nM.

For the compound `O=C(C1CC1)N1CC[C@@H](CN2C(=O)C3(CCN(CCO)CC3)N=C2c2ccc(-c3ccc4occc4c3)cc2)C1` [compound 168, 2-[4-(1-Benzofuran-5-yl)phenyl]-3-{[(3R)-1-(cyclopropylcarbonyl)pyrrolidin-3-yl]methyl}-8-(2-hydroxyethyl)-1,3,8-triazaspiro[4.5]dec-1-en-4-one], the inhibition at 10 µM was determined as 108% and the IC50 was 145 nM.

As for `CC(C)N1CCC2(CC1)N=C(c1ccc(-c3ccc4c(cnn4C)c3)cc1)N(CC1CN(C(=O)C3CC3)C1)C2=O` [compound 169, 3-{[1-(Cyclopropylcarbonyl)azetidin-3-yl]methyl}-8-(1-methylethyl)-2-[4-(1-methyl-1H-indazol-5-yl)phenyl]-1,3,8-triazaspiro[4.5]dec-1-en-4-one], the inhibition at 10 µM was found to be 45.7% and the IC50 is more than 10000 nM.

As for `Cn1ncc2cc(-c3ccc(C4=NC5(CCN(CCO)CC5)C(=O)N4CC4CN(C(=O)C5CC5)C4)cc3)ccc21` [compound 170, 3-{[1-(Cyclopropylcarbonyl)azetidin-3-yl]methyl}-8-(2-hydroxyethyl)-2-[4-(1-methyl-1H-indazol-5-yl)phenyl]-1,3,8-triazaspiro[4.5]dec-1-en-4-one], the inhibition at 10 µM came to 55.6% and the IC50 was 7940 nM.

Regarding `Cc1cc2cc(-c3ccc(C4=NC5(CCN(C(=O)C6CC6)CC5)C(=O)N4C[C@@H]4CCN(C(=O)C5CC5)C4)cc3)ccc2o1` [compound 171, 8-(Cyclopropylcarbonyl)-3-{[(3R)-1-(cyclopropylcarbonyl)pyrrolidin-3-yl]methyl}-2-[4-(2-methyl-1-benzofuran-5-yl)phenyl]-1,3,8-triazaspiro[4.5]dec-1-en-4-one], the inhibition at 10 µM is 107% and the IC50 was 214 nM.

As for `Cc1cc2cc(-c3ccc(C4=NC5(CCN(C(=O)C(C)C)CC5)C(=O)N4C[C@@H]4CCN(C(=O)C5CC5)C4)cc3)ccc2o1` [compound 172, 3-{[(3R)-1-(Cyclopropylcarbonyl)pyrrolidin-3-yl]methyl}-2-[4-(2-methyl-1-benzofuran-5-yl)phenyl]-8-(2-methylpropanoyl)-1,3,8-triazaspiro[4.5]dec-1-en-4-one], the inhibition at 10 µM was determined as 108% and the IC50 is 251 nM.

Turning to `Cc1cc2cc(-c3ccc(C4=NC5(CCN(CCO)CC5)C(=O)N4C[C@@H]4CCN(C(=O)C5CC5)C4)cc3)ccc2o1` [compound 173, 3-{[(3R)-1-(Cyclopropylcarbonyl)pyrrolidin-3-yl]methyl}-8-(2-hydroxyethyl)-2-[4-(2-methyl-1-benzofuran-5-yl)phenyl]-1,3,8-triazaspiro[4.5]dec-1-en-4-one], the inhibition at 10 µM was found to be 97% and the IC50 was 380 nM.

For `Cc1cc2cc(-c3ccc(C4=NC5(CCN(C(=O)CN(C)C)CC5)C(=O)N4C[C@@H]4CCN(C(=O)C5CC5)C4)cc3)ccc2o1` [compound 174, 3-{[(3R)-1-(Cyclopropylcarbonyl)pyrrolidin-3-yl]methyl}-8-(N,N-dimethylglycyl)-2-[4-(2-methyl-1-benzofuran-5-yl)phenyl]-1,3,8-triazaspiro[4.5]dec-1-en-4-one], the inhibition at 10 µM stood at 109% and the IC50 was 245 nM.

`Cc1cc2cc(-c3ccc(C4=NC5(CC5)C(=O)N4CC4CN(C(=O)C5CC5)C4)cc3)ccc2o1` [compound 178, 6-{[1-(Cyclopropylcarbonyl)azetidin-3-yl]methyl}-5-[4-(2-methyl-1-benzofuran-5-yl)phenyl]-4,6-diazaspiro[2.4]hept-4-en-7-one]: the inhibition at 10 µM was 108% and the IC50 is 102 nM.

For `Cc1cc2cc(-c3ccc(C4=NC5(CC5)C(=O)N4CC4CN(C(=O)C5CC5)C4)cc3C)ccc2o1` [compound 179, 6-{[1-(Cyclopropylcarbonyl)azetidin-3-yl]methyl}-5-[3-methyl-4-(2-methyl-1-benzofuran-5-yl)phenyl]-4,6-diazaspiro[2.4]hept-4-en-7-one], the inhibition at 10 µM was found to be 59.5% and the IC50 was 6310 nM.

As to `Cc1cc(C2=NC3(CC3)C(=O)N2C[C@@H]2CCN(C(=O)C3CC3)C2)ccc1-c1ccc2occc2c1` [compound 180, 5-[4-(1-Benzofuran-5-yl)-3-methylphenyl]-6-{[(3R)-1-(cyclopropylcarbonyl)pyrrolidin-3-yl]methyl}-4,6-diazaspiro[2.4]hept-4-en-7-one], the inhibition at 10 µM came out at 101% and the IC50 was 138 nM.

In the case of `CC(=O)N1CCC2(CC1)N=C(c1ccc(-c3ccc4sc(C)c(C)c4c3)cc1)N(C[C@@H]1CCN(C(=O)C3CC3)C1)C2=O` [compound 181, 8-Acetyl-3-{[(3R)-1-(cyclopropylcarbonyl)pyrrolidin-3-yl]methyl}-2-[4-(2,3-dimethyl-1-benzothiophen-5-yl)phenyl]-1,3,8-triazaspiro[4.5]dec-1-en-4-one], the inhibition at 10 µM was determined as 109% and the IC50 was 123 nM.

As to `Cc1sc2ccc(-c3ccc(C4=NC5(CCN(C(=O)CN(C)C)CC5)C(=O)N4C[C@@H]4CCN(C(=O)C5CC5)C4)cc3)cc2c1C` [compound 182, 3-{[(3R)-1-(Cyclopropylcarbonyl)pyrrolidin-3-yl]methyl}-2-[4-(2,3-dimethyl-1-benzothiophen-5-yl)phenyl]-8-(N,N-dimethylglycyl)-1,3,8-triazaspiro[4.5]dec-1-en-4-one], the inhibition at 10 µM was found to be 104% and the IC50 was 138 nM.

For `Cc1sc2ccc(-c3ccc(C4=NC5(CCN(C(=O)C(C)C)CC5)C(=O)N4C[C@@H]4CCN(C(=O)C5CC5)C4)cc3)cc2c1C` [compound 183, 3-{[(3R)-1-(Cyclopropylcarbonyl)pyrrolidin-3-yl]methyl}-2-[4-(2,3-dimethyl-1-benzothiophen-5-yl)phenyl]-8-(2-methylpropanoyl)-1,3,8-triazaspiro[4.5]dec-1-en-4-one], the inhibition at 10 µM amounted to 109% and the IC50 is 138 nM.

In the case of `Cc1sc2ccc(-c3ccc(C4=NC5(CCN(C(C)C)CC5)C(=O)N4C[C@@H]4CCN(C(=O)C5CC5)C4)cc3)cc2c1C` [compound 184, 3-{[(3R)-1-(Cyclopropylcarbonyl)pyrrolidin-3-yl]methyl}-2-[4-(2,3-dimethyl-1-benzothiophen-5-yl)phenyl]-8-(1-methylethyl)-1,3,8-triazaspiro[4.5]dec-1-en-4-one], the inhibition at 10 µM was found to be 107% and the IC50 was 437 nM.

Regarding `Cc1cc2cc(-c3ccc(C4=NC5(CCN(C(C)C)CC5)C(=O)N4C[C@@H]4CCN(C(=O)C5CC5)C4)cc3)ccc2o1` [compound 186, 3-{[(3R)-1-(Cyclopropylcarbonyl)pyrrolidin-3-yl]methyl}-2-[4-(2-methyl-1-benzofuran-5-yl)phenyl]-8-(1-methylethyl)-1,3,8-triazaspiro[4.5]dec-1-en-4-one], the inhibition at 10 µM came out at 80.4% and the IC50 was 1550 nM.

Take `CC(C)N1CCC2(CC1)N=C(c1ccc(-c3ccc4[nH]ccc4c3)cc1)N(CC1CN(C(=O)C3CC3)C1)C2=O` [compound 187, 3-{[1-(Cyclopropylcarbonyl)azetidin-3-yl]methyl}-2-[4-(1H-indol-5-yl)phenyl]-8-(1-methylethyl)-1,3,8-triazaspiro[4.5]dec-1-en-4-one]: the inhibition at 10 µM worked out at 96.5% and the IC50 is 603 nM.

As for `CC(C)N1CCC2(CC1)N=C(c1ccc(-c3ccc4[nH]ncc4c3)cc1)N(CC1CN(C(=O)C3CC3)C1)C2=O` [compound 188, 3-{[1-(Cyclopropylcarbonyl)azetidin-3-yl]methyl}-2-[4-(1H-indazol-5-yl)phenyl]-8-(1-methylethyl)-1,3,8-triazaspiro[4.5]dec-1-en-4-one], the inhibition at 10 µM came to 50.4% and the IC50 is approximately 10000 nM.

`O=C1N(C[C@@H]2CCN(S(=O)(=O)N3CCCC3)C2)C(c2ccc(-c3ccc4occc4c3)cc2)=NC12CCCC2` [compound 189, 2-[4-(1-Benzofuran-5-yl)phenyl]-3-{[(3S)-1-(pyrrolidin-1-ylsulfonyl)pyrrolidin-3-yl]methyl}-1,3-diazaspiro[4.4]non-1-en-4-one]: the inhibition at 10 µM stood at 16.7% and the IC50 was more than 10000 nM.

Turning to `O=C([C@@H]1CCCO1)N1CC[C@@H](CN2C(=O)C3(CCCC3)N=C2c2ccc(-c3ccc4occc4c3)cc2)C1` [compound 190, 2-(4-(Benzofuran-5-yl)phenyl)-3-(((R)-1-((S)-tetrahydro-furan-2-carbonyl)pyrrolidin-3-yl)methyl)-1,3-diazaspiro[4.4]non-1-en-4-one], the inhibition at 10 µM is 105% and the IC50 is 295 nM.

On to `O=C([C@H]1CCCO1)N1CC[C@@H](CN2C(=O)C3(CCCC3)N=C2c2ccc(-c3ccc4occc4c3)cc2)C1` [compound 191, 2-[4-(1-Benzofuran-5-yl)phenyl]-3-({(3R)-1-[(2R)-tetrahydro-furan-2-ylcarbonyl]pyrrolidin-3-yl}methyl)-1,3-diazaspiro[4.4]non-1-en-4-one], for which the inhibition at 10 µM is 108% and the IC50 was 79.4 nM.
